Here are results for 11 compounds from paper PMC10257520 (Journal of medicinal chemistry, 2022).

Where two headings read alike, the source gives them in different places.

In one data set the test system is NCI-H522 cells. The experiment in a line: Time-lapse microscopy of cell death. Type of data set: cell-based, human. Particulars: for Time from initiation of ferroptosis until most/all cells were dead: CETZOLE-1 20 μM (most of the cells), HY-1 5 μM (all cells); for Start of ferroptosis after treatment: CETZOLE-1 20 μM, HY-1 5 μM.
The test system of another data set is RPE cells. The experiment in a line: cells. Particulars: Homo sapiens, read-out: IC50 on RPE cells.
A further data set relates to SH-SY5Y cells. The experiment in a line: MTT cell viability assay, SH-SY5Y neuroblastoma cells. Type of data set: cell-based, human. Particulars: 0.5×, 1×, 2× IC50 of the controls on H522; HY-1 at 2.32 μM.
The next data set has as its system PC-12 cells. The experiment in a line: MTT cytotoxicity on undifferentiated and differentiated PC-12 cells. Type of data set: cell-based. Particulars: MTT after 24 h of treatment.
In data set [1] the test system is NCI-60 human tumor cell lines. Briefly: cells.
Data set [2] relates to HDAC 1, 2, 3, 4, 6, and 8. Particulars: recombinant HDAC proteins.
Data set [3] concerns DU-145. The experiment in a line: cells. The settings on record: Homo sapiens, DU-145, read-out: GI50, DU-145.
In data set [4] the test system is LOXIMVI. The experiment in a line: cells. The settings on record: Homo sapiens, LOX IMVI, read-out: GI50, LOXIMVI.
For data set [5], the system named is lipid peroxides in NCI-H522 cells. Briefly: C11-BODIPY lipid peroxidation assay. Type of data set: cell-based, human. The settings on record: NCI-H522, 10 μM, 6 h.
Data set [6] has as its system IGROV-1. The experiment in a line: cells. The settings on record: Homo sapiens, IGROV-1, read-out: GI50, IGROV-1.
For data set [7], the system named is PC-3. The experiment in a line: cells. The settings on record: Homo sapiens, PC-3, read-out: GI50, PC-3.
For the next data set, the system named is Class I HDACs. The settings on record: read-out: IC50 for Class I HDACs; recombinant HDAC proteins.
For a further data set, the system named is RPMI-8226. The settings on record: read-out: GI50, RPMI-8226; five-dose assay; ref public data base of NCI (NSC 759852); cited from earlier work.
The subject of a further data set is HS578. The settings on record: read-out: GI50, HS578; five-dose assay; ref public data base of NCI (NSC 759852); cited from earlier work.
Another data set deals with NCI-H23. Particulars: read-out: GI50, NCI-H23; five-dose assay; ref public data base of NCI (NSC 759852); cited from earlier work.
A further data set concerns SF-539 cell line. The settings on record: read-out: GI50, SF-539; five-dose assay; ref public data base of NCI (NSC 759852); cited from earlier work.
The next data set has as its system DU-145 cells. The settings on record: one-dose; ref public data base of NCI (NSC 759852); cited from earlier work.
Data set [8] has as its system LOXIMVI. The settings on record: read-out: GI50, LOXIMVI; five-dose assay; ref public data base of NCI (NSC 759852); cited from earlier work.
Data set [9] concerns PC-3. The settings on record: read-out: GI50, PC-3; five-dose assay; ref public data base of NCI (NSC 759852); cited from earlier work.
For data set [10], the system named is DU-145. Particulars: read-out: GI50, DU-145; five-dose assay; ref public data base of NCI (NSC 759852); cited from earlier work.
For data set [11], the system named is IGROV-1. The settings on record: read-out: GI50, IGROV-1; five-dose assay; ref public data base of NCI (NSC 759852); cited from earlier work.
Another data set deals with NCI-H23 cell line. Particulars: one-dose; ref public data base of NCI (NSC 759852); cited from earlier work.

For the compound `C#Cc1nc(C2=C(C)[C@@H](O)CC2)cs1` [CETZOLE-1], in the data set on NCI-H522 cells, the “Time from initiation of ferroptosis until most/all cells were dead” value is given as at most 8 h and the “Start of ferroptosis after treatment” value was “approximately 12 h”. Moreover, the IC50 with RPE cells was over 30 µM.

On to `C#Cc1nc(C(=O)NCCCCCCC(=O)OC)cs1` [FC-1, Methyl 7-(2-Ethynylthiazole-4-carboxamido)heptanoate], for which the “Effect on neuronal cells (SH-SY5Y viability, neurotoxicity)” value (“Effect on neuronal cells” for short) in the data set on SH-SY5Y cells is listed as “significant neurotoxicity”. Further, the “Effect on PC-12 cells (differentiated and undifferentiated)” value with PC-12 cells is “resistant”.

`O=C(CCCCCCNC(=O)c1csc(Br)n1)NO` [HC-1, 2-Bromo-N-(7-(hydroxyamino)-7-oxoheptyl)thiazole-4-carboxamide]: in data set [1] (read-out: Average GI50), the GI50 was determined as 1.51 µM. Further, the “Effect on neuronal cells” value in the data set on SH-SY5Y cells is “very mild toxicity”.

As for `O=C(/C=C/C=C/c1csc(Br)n1)NO` [HC-4, (2E,4E)-5-(2-Bromothiazol-4-yl)-N-hydroxypenta-2,4-dienamide], the HDAC inhibitory activity entry in data set [2] is given as “poor HDAC inhibitory activity”.

Consider `C#Cc1nc(C(=O)NCCCCCCC(=O)NO)cs1` [HY-1, 2-Ethynyl-N-(7-(hydroxyamino)-7-oxoheptyl)thiazole-4-carboxamide], for which the GI50 was 0.85 µM in data set [1] (read-out: Average GI50); 0.02 µM in data set [1] (read-out: GI50 values as low as (best cell line)); 0.36 µM with DU-145 [3]; 0.02 µM with LOXIMVI [4]; 0.57 µM in the data set on IGROV-1 [6]; 2 µM in the data set with PC-3 [7]. Further, the “Time from initiation of ferroptosis until most/all cells were dead” value in the data set on NCI-H522 cells is at most 2 h. The “Start of ferroptosis after treatment” value in the data set with NCI-H522 cells is 8 h. The “Lipid peroxide levels (C11-BODIPY 581/591)” value in data set [5] is “increased levels of lipid peroxides”. Besides, the “Effect on neuronal cells” value in the data set with SH-SY5Y cells was “no neurotoxic effects”. For the same compound, the “Effect on PC-12 cells (differentiated and undifferentiated)” value in the data set on PC-12 cells is reported as “behaved like the HDAC control HC-1”.

For the compound `C#Cc1nc(/C=C\CCCCCC(=O)NO)cs1` [HY-2, (Z)-8-(2-Ethynylthiazol-4-yl)-N-hydroxyoct-7-enamide], the GI50 in [1] (read-out: Average GI50) is 2.18 µM.

`C#Cc1nc(/C=C/CCCCCC(=O)NO)cs1` [HY-3, (E)-8-(2-Ethynylthiazol-4-yl)-N-hydroxyoct-7-enamide]: the GI50 in [1] (read-out: Average GI50) is 3.39 µM.

`C#Cc1nc(/C=C/C=C/C(=O)NO)cs1` [HY-4, (2E,4E)-5-(2-Ethynylthiazol-4-yl)-N-hydroxypenta-2,4-dienamide]: the HDAC inhibitory activity entry in data set [2] is listed as “poor HDAC inhibitory activity”. Moreover, the “Effect on neuronal cells” value with SH-SY5Y cells is listed as “not showing attenuated neurotoxicity”.

`C#Cc1nc(/C=C/C(=O)NO)cs1` [HY-5, (E)-3-(2-Ethynylthiazol-4-yl)-N-hydroxyacrylamide]: the GI50 in data set [1] (read-out: Average GI50) amounted to 2.47 µM. Also, the IC50 with Class I HDACs is 0.89 to 1.1 µM.

For the compound `COC(=O)CCCCCCNC(=O)c1csc(Br)n1` [NC-1, Methyl 7-(2-Bromothiazole-4-carboxamido)heptanoate], the “Effect on neuronal cells” value in the data set with SH-SY5Y cells was “no effect”.

As for `O=C(CCCCCCC(=O)Nc1ccccc1)NO` [SAHA], the GI50 in the data set with RPMI-8226 is 1.5 µM; with HS578 it was 2 µM; in the data set with NCI-H23, 2 µM; in the data set with SF-539 cell line, 2 µM; in the data set on LOXIMVI [8], 1.25 µM; in the data set with PC-3 [9], 1.58 µM. The GI50 in the data set on DU-145 [10] was 1.25 µM; in the data set with IGROV-1 [11], 2 µM. Also, the “Time after treatment at which cells were still alive” value in the data set with NCI-H522 cells (SAHA 5 μM) is at least 60 h. The “Growth %, DU-145” value in the data set with DU-145 cells is reported as 3.5%. The “Growth %, NCI-H23” value with NCI-H23 cell line is on record as 3.30%.

By IC50 is commonly meant the concentration at which inhibition is half-maximal. The term GI50 denotes the concentration giving 50% growth inhibition.
